# Results: US20010039275A1, “Use of 2,4-diaminothiazole derivatives” (priority 2000, published 2001)
row,SMILES,melting point
1,"Nc1nc(Nc2ccc(Cl)cc2)sc1C(=O)c1cccc(OCc2ccccc2)c1 [Example 54, [4-Amino-2-(4-chlorophenylamino)thiazol-5-yl]-(3-benzyloxyphenyl)methanone]",173 to 174 °C
2,"Nc1nc(Nc2ccccc2)sc1C(=O)c1ccccc1[N+](=O)[O-] [Example 25, (4-Amino-2-phenylaminothiazol-5-yl)-(2-nitrophenyl)methanone]",117 to 119 °C
3,"COc1ccc(C(=O)c2sc(Nc3ccccc3)nc2N)c(OC)c1 [Example 30, (4-Amino-2-phenylaminothiazol-5-yl)-(2,4-dimethoxyphenyl)methanone]",196 to 198 °C
4,"Nc1nc(Nc2ccccc2)sc1C(=O)c1ccc(-c2ccccc2)cc1 [Example 15, (4-Amino-2-phenylaminothiazol-5-yl)biphenyl-4-ylmethanone]",224 to 225 °C
5,"Nc1nc(Nc2ccccc2)sc1C(=O)c1cccc(OCc2ccccc2)c1 [Example 16, (4-Amino-2-phenylaminothiazol-5-yl)-(3-benzyloxyphenyl)methanone]",121 to 124 °C
6,"CCC(=O)c1sc(Nc2ccccc2)nc1N [Example 11, 1-(4-Amino-2-phenylaminothiazol-5-yl)propan-1-one]",136 to 139 °C
7,"Nc1nc(Nc2ccccc2)sc1C(=O)c1csc2ccccc12 [Example 40, (4-Amino-2-phenylaminothiazol-5-yl)-benzofblthiophen-3-yl-methanone]",211 to 212 °C
8,"Nc1nc(Nc2ccccc2)sc1-c1ccc([N+](=O)[O-])cc1 [Example 20, 4-Amino-2-phenylamino-5-(4-nitrophenyl)thiazole]",217 to 219 °C
9,"Nc1nc(Nc2ccc(Br)cc2)sc1C(=O)C1CC1 [Example 17, [4-Amino-2-(4-bromophenylamino)thiazol-5-yl]cyclopropylmethanone]",204 to 206 °C
10,"Cc1cc(C)c(C(=O)c2sc(Nc3ccccc3)nc2N)c(C)c1 [Example 35, (4-Amino-2-phenylaminothiazol-5-yl)-(2,4,6-trimethylphenyl)methanone]",198 to 200 °C
11,"CON(C)C(=O)c1sc(Nc2ccccc2)nc1N [Example 46, 4-Amino-2-phenyiaminothiazole-5-carboxylic acid methoxymethylamide]",152 to 153 °C
12,"CCN(CC)c1ccc(C(=O)c2sc(Nc3ccccc3)nc2N)cc1 [Example 7, (4-Amino-2-phenylaminothiazol-5-yl)-(4-diethylaminophenyl)methanone]",214 to 216 °C
13,"Nc1nc(Nc2ccccc2)sc1C(=O)N1CCOCC1 [Example 49, (4-Amino-2-phenylaminothiazol-5-yl)morpholin-4-ylmethanone]",212 to 213 °C
14,"COC(=O)c1sc(Nc2ccccc2)nc1N [Example 38, 4-Amino-2-phenylaminothiazole-5-carboxylic acid methyl ester]",173 to 174 °C
15,"Nc1nc(Nc2ccccc2)sc1C(=O)Nc1ccccc1 [Example 45, 4-Amino-2-phenylaminothiazole-5-carboxylic acid phenylamide]",75 °C
16,"CCCNc1nc(N)c(C(=O)c2cccnc2)s1 [Example 32, (4-Amino-2-propylaminothiazol-5-yl)pyridin-3-yl-methanone]",205 to 206 °C
17,"COc1cccc(OC)c1C(=O)c1sc(Nc2ccccc2)nc1N [Example 37, (4-Amino-2-phenylaminothiazol-5-yl)-(2,6-dimethoxyphenyl)methanone]",224 to 226 °C
18,"Cc1c(C(=O)c2sc(Nc3ccccc3)nc2N)sc2ccccc12 [Example 19, (4-Amino-2-phenylaminothiazol-5-yl)-(3-methylbenzo[b]thiophen-2-yl) methanone]",165 to 167 °C

# Other lines, results leading:
row,melting point,SMILES
1,206 to 208 °C,"Nc1nc(Nc2ccccc2)sc1C(=O)c1ccc([N+](=O)[O-])cc1 [Example 27, (4-Amino-2-phenylaminothiazol-5-yl)-(4-nitrophenyl)methanone]"
2,170 to 173 °C,"Nc1nc(Nc2ccccc2)sc1C(=O)c1ccc(OC(F)(F)F)cc1 [Example 8, (4-Amino-2-phenylaminothiazol-5-yl)-(4-trifluoromethoxyphenyl)methanone]"
3,161 to 164 °C,"Nc1nc(Nc2ccccc2)sc1C(=O)c1cccc(F)c1 [Example 13, (4-Amino-2-phenylaminothiazol-5-yl)-(3-fluorophenyl)methanone]"
4,227 to 229 °C,"Nc1nc(Nc2ccccc2)sc1C(=O)c1ccc2ccccc2c1 [Example 14, (4-Amino-2-phenylaminothiazol-5-yl)naphthalen-2-ylmethanone]"
5,174 to 175 °C,"COc1cccc(C(=O)c2sc(Nc3ccccc3)nc2N)c1 [Example 23, (4-Amino-2-phenylaminothiazol-5-yl)-(3-methoxyphenyl)methanone]"
6,201 to 205 °C,"Nc1nc(Nc2ccccc2)sc1C(=O)c1ccc(C(F)(F)F)cc1 [Example 6, (4-Amino-2-phenylaminothiazol-5-yl)-(4-trifluoromethylphenyl)methanone]"
7,167 to 169 °C,"Nc1nc(Nc2ccccc2)sc1C(=O)c1ccc(Cl)s1 [Example 21, (4-Amino-2-phenylaminothiazol-5-yl)-(5-chlorothiophen-2-yl)methanone]"
8,178 to 180 °C,"Nc1nc(Nc2ccccc2)sc1C(=O)c1ccc(F)c(F)c1 [Example 12, (4-Amino-2-phenylaminothiazol-5-yl)-(3,4-difluorophenyl)methanone]"
9,195 to 198 °C,"Nc1nc(Nc2ccccc2)sc1C(=O)c1ccc(Cl)c(Cl)c1 [Example 18, (4-Amino-2-phenylaminothiazol-5-yl)-(3,4-dichlorophenyl)methanone]"
10,222 to 224 °C,"Nc1nc(Nc2ccccc2)sc1C(=O)c1ccc(O)c(O)c1 [Example 29, (4-Amino-2-phenylaminothiazol-5-yl)-(3,4-dihydroxyphenyl)methanone]"
11,245 to 246 °C,"Nc1nc(Nc2ccccc2)sc1C(=O)c1c(Cl)cccc1Cl [Example 42, (4-Amino-2-phenylaminothiazol-5-yl)-(2,6-dichlorophenyl)methanone]"
12,196 to 200 °C,"COc1ccccc1C(=O)c1sc(Nc2ccccc2)nc1N [Example 22, (4-Amino-2-phenylaminothiazol-5-yl)-(2-methoxyphenvl)methanone]"
13,173 to 175 °C,"Cc1cc(C(=O)c2sc(Nc3ccccc3)nc2N)ccc1Cl [Example 28, (4-amino-2-phenylaminothiazol-5-yl)-(4-chloro-3-methylphenyl)methanone]"
